For five compounds, IC50 results are on record in US20190135793A1, “HETEROCYCLIC INHIBITORS OF KDM5 FOR THE TREATMENT OF DISEASE” (Board of Regents, The University of Texas System, priority 2017, published 2019).

One experiment deals with T1, KDM5B (Homo sapiens, UniProt Q9UGL1).
T1 construct: Full length of KDM5B and KDM4C protein were purchased from Active Motif; purchased Active Motif 31832
Description: biochemical. The gist of the method:
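KDM5B (0.5 nM final) was preincubated with compound for 15 min at room temperature, then reacted with biotinylated peptide (3 nM final) for 25 min at room temperature.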

Another experiment addresses T2, KDM4C (Homo sapiens, UniProt Q9H3R0).
T2 construct: Full length of KDM5B and KDM4C protein were purchased from Active Motif; purchased Active Motif 31858
T2 sequence (Q9H3R0 1-1056): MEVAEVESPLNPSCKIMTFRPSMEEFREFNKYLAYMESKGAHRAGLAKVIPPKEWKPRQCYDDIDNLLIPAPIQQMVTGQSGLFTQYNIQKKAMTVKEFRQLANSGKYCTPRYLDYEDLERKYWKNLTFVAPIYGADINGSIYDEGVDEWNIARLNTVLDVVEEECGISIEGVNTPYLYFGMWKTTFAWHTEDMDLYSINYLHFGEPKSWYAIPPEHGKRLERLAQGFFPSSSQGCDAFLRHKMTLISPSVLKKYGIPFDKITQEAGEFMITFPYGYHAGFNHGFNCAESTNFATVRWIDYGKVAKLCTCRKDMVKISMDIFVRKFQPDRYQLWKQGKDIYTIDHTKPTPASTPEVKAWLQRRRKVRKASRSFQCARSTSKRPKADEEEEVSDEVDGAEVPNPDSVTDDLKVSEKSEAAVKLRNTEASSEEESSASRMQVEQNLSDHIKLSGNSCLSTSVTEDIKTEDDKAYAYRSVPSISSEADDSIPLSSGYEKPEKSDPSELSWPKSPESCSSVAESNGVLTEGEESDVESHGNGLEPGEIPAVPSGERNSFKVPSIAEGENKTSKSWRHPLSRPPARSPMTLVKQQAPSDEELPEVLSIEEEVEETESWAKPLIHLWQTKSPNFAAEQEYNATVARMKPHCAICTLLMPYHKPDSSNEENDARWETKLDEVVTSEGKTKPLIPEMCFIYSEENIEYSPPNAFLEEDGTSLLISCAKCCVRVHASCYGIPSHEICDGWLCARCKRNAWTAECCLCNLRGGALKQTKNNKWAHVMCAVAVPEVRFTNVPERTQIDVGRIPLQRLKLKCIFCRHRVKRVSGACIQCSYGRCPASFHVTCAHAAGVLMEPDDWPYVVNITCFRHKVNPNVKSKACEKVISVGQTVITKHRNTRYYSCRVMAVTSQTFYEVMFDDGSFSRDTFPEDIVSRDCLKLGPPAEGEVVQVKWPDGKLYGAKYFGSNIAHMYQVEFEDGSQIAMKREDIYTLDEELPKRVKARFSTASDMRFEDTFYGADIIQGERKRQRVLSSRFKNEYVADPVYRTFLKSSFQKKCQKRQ
Description: KDM4C AlphaScreen assay. Conditions: AlphaScreen; full length KDM4C 0.2 nM; biotinylated H3K9Me3 peptide 3 nM; 30 minutes at room temperature. The experiment is classed as biochemical. In outline: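 Full-length KDM4C (0.2 nM final) was preincubated 15 min at RT with compound in HEPES pH 7.4 with Tween-20, BSA and TCEP. The reaction ran 30 min at RT after adding biotinylated peptide (3 nM final) in buffer with Fe(II), α-ketoglutarate and ascorbate. EDTA-containing AlphaScreen beads stopped it; IC50 was curve-fitted.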
(In general: Bead proximity is the source of the signal in Alpha formats.)

The mark [1] stands for this setting: AlphaScreen, full length KDM5B 0.5 nM, biotinylated H3K4Me3 peptide 3 nM, 25 minutes at room temperature, read-out: KDM5B (IC50).

pIC50: −log10 of the molar value. Like-named read-outs stand apart in the source and are kept apart here.

T1 sequence (Q9UGL1 whole entry): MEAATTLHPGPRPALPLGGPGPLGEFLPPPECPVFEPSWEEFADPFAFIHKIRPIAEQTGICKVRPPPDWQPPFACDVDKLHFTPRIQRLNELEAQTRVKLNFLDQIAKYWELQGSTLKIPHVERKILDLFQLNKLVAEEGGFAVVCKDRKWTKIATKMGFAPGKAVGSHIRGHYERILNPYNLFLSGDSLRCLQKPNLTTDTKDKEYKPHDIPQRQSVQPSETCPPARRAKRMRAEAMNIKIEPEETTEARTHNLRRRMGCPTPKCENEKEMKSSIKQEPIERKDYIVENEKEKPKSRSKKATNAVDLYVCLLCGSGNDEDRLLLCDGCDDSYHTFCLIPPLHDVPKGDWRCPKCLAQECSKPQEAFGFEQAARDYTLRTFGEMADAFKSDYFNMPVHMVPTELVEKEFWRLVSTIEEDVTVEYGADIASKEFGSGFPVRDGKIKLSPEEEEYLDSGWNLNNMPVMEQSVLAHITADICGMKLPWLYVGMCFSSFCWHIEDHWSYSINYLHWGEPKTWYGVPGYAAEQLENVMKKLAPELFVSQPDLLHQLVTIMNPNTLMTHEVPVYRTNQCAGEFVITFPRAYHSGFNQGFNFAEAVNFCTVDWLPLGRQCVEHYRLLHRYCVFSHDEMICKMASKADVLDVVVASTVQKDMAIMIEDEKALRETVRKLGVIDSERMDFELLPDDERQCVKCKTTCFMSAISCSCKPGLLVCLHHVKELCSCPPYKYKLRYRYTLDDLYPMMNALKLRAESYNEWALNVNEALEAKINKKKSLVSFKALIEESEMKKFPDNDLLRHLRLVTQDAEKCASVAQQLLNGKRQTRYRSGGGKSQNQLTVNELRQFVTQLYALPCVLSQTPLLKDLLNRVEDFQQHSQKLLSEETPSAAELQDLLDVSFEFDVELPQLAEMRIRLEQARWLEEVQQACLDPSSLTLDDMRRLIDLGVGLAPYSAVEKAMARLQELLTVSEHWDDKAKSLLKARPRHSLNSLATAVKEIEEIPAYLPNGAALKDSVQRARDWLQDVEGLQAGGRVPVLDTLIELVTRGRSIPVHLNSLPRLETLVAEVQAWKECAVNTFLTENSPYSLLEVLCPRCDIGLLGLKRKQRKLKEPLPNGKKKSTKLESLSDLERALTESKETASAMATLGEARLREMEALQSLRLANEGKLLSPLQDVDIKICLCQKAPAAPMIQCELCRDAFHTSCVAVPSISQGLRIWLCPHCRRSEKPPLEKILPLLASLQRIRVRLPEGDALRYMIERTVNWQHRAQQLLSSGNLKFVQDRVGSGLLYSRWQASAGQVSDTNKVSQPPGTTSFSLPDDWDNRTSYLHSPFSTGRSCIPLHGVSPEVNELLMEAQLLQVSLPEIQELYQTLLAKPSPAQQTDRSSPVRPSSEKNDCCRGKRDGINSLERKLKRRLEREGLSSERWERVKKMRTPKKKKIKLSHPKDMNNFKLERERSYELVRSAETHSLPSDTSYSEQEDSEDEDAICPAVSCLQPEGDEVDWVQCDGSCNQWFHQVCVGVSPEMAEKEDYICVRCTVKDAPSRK

Broadly, the pIC50 is −log10 of the IC50, conventionally taken in molar units. In the case of `CC(C)c1c(O)nc(-c2cncs2)nc1-c1cnn(C2CCNCC2)c1` [Example 154, 6-[1-(Piperidin-4-yl)-1H-pyrazol-4-yl]-5-(propan-2-yl)-2-(1,3-thiazol-5-yl)pyrimidin-4-ol], the pIC50 against KDM5B was 5.67; against KDM4C it was 4.86.
As to `Cc1nc(-c2cncs2)nc(O)c1C(C)C` [Example 155, 6-Methyl-5-(propan-2-yl)-2-(1,3-thiazol-5-yl)-pyrimidin-4-ol], the pIC50 is 7.19 against KDM5B and 5.78 against KDM4C.
With `CCc1c(C)nc(-c2cncs2)nc1O` [Example 156, 5-Ethyl-6-methyl-2-(1,3-thiazol-5-yl)-pyrimidin-4-ol], the pIC50 against KDM5B is 6.18; at KDM4C it was 5.09.
As for `CC(C)c1cnc(-c2cncs2)nc1O` [Example 157, 5-(Propan-2-yl)-2-(1,3-thiazol-5-yl)-pyrimidin-4-ol], the pIC50 on KDM5B (setting [1]) is 6.09; at KDM4C, 5.24.
For the compound `Cc1nc(-c2nccs2)nc(O)c1C(C)C` [Example 158, 6-Methyl-5-(propan-2-yl)-2-(1,3-thiazol-2-yl)-pyrimidin-4-ol], the pIC50 on KDM5B (setting [1]) is 5.62; against KDM4C, 4.52.
